From the NIST ThermoML archive (doi:10.1016/j.jct.2008.04.016)

Legend:
[1] = refractive index (Na D-line) (dimensionless); details: 101.33 kPa, Liquid
[2] = for viscosity / mass density: 101.33 kPa, Liquid

CCCCCC[n+]1ccn(C)c1.O=S(=O)([N-]S(=O)(=O)C(F)(F)F)C(F)(F)F
Details | mass density [kg/m3] | refractive index | surface tension liquid-gas [mN/m] | viscosity [mPa·s]
[1], 302.95 K | – | 1.42958 | – | –
[1], 307.75 K | – | 1.42844 | – | –
[1], 313.15 K | – | 1.42737 | – | –
[1], 318.05 K | – | 1.42649 | – | –
[1], 322.95 K | – | 1.42578 | – | –
[1], 328.05 K | – | 1.42484 | – | –
[1], 332.95 K | – | 1.42376 | – | –
[2], 288.2 K | – | – | – | 97
[2], 298.15 K | 1372.13 | – | 32.5 | –
[2], 298.2 K | – | – | – | 68
[2], 308.15 K | 1363.17 | – | 31.6 | –
[2], 308.2 K | – | – | – | 46
[2], 318.15 K | 1354.23 | – | 30.5 | –
[2], 318.2 K | – | – | – | 32
[2], 328.15 K | 1344.94 | – | 29.7 | –
[2], 328.2 K | – | – | – | 24
[2], 338.15 K | 1335.86 | – | 28.6 | –
[2], 348.15 K | 1326.91 | – | – | –
[2], 358.15 K | 1318.16 | – | – | –

CCCCCCn1cc[n+](C)c1.F[P-](F)(F)(F)(F)F [1-hexyl-3-methylimidazolium hexafluorophosphate]
Details | mass density [kg/m3] | refractive index | surface tension liquid-gas [mN/m] | viscosity [mPa·s]
[1], 302.95 K | – | 1.41694 | – | –
[1], 307.75 K | – | 1.41631 | – | –
[1], 313.15 K | – | 1.41531 | – | –
[1], 318.05 K | – | 1.41479 | – | –
[1], 322.95 K | – | 1.41362 | – | –
[1], 328.05 K | – | 1.41307 | – | –
[1], 332.95 K | – | 1.41231 | – | –
[2], 288.2 K | – | – | – | 1018
[2], 298.15 K | 1293.41 | – | 42.1 | –
[2], 298.2 K | – | – | – | 607
[2], 308.15 K | 1285.78 | – | 40.7 | –
[2], 308.2 K | – | – | – | 345
[2], 318.15 K | 1277.92 | – | 39.4 | –
[2], 318.2 K | – | – | – | 215
[2], 328.15 K | 1269.88 | – | 38 | –
[2], 328.2 K | – | – | – | 152
[2], 338.15 K | 1262.13 | – | 36.6 | –
[2], 338.2 K | – | – | – | 113
[2], 348.15 K | 1254.36 | – | – | –
[2], 348.2 K | – | – | – | 87
[2], 358.15 K | 1246.81 | – | – | –

CCCCCCn1cc[n+](C)c1.F[B-](F)(F)F [1-hexyl-3-methylimidazolium tetrafluoroborate]
Details | mass density [kg/m3] | refractive index | surface tension liquid-gas [mN/m] | viscosity [mPa·s]
[1], 302.95 K | – | 1.42672 | – | –
[1], 307.75 K | – | 1.42613 | – | –
[1], 313.15 K | – | 1.42539 | – | –
[1], 318.05 K | – | 1.42443 | – | –
[1], 322.95 K | – | 1.42346 | – | –
[1], 328.05 K | – | 1.42232 | – | –
[1], 332.95 K | – | 1.42146 | – | –
[2], 288.2 K | – | – | – | 141
[2], 298.15 K | 1145.32 | – | 36.8 | –
[2], 298.2 K | – | – | – | 102
[2], 308.15 K | 1138.51 | – | 35.6 | –
[2], 308.2 K | – | – | – | 69
[2], 318.15 K | 1131.67 | – | 34.2 | –
[2], 318.2 K | – | – | – | 43
[2], 328.15 K | 1124.89 | – | 33 | –
[2], 328.2 K | – | – | – | 30
[2], 338.15 K | 1118.16 | – | 32.7 | –
[2], 338.2 K | – | – | – | 21
[2], 348.15 K | 1111.47 | – | – | –
[2], 358.15 K | 1104.84 | – | – | –
